Data published in US6737383B1, “Herbicidal oxadiazolidines” (priority 1999, dated 2004).

What was measured:
[1] = system: bedstraw; experiment: Test B pre/postemergence bedstraw; type: in vivo, Galium aparine
In short: (§1)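 Herbicidal effect was estimated by eye on a ten-point control scale after plants spent twelve to sixteen days in a greenhouse following soil or foliar treatment. Foliar sprays targeted plants at one to four leaves; all doses were formulated in a non-phytotoxic solvent with surfactant.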

[2] = system: wild oat; experiment: Test B pre/postemergence wild oat; type: in vivo, Avena fatua
In short: as §1

[3] = system: duck salad; experiment: Test B flood test duck salad; type: in vivo, Heteranthera limosa
In short: (§2)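 Each value is a visual injury score relative to controls, with 10 meaning complete control and 0 no effect. Evaluation took place twelve to sixteen days after the 2-leaf-stage plants were treated and kept in the greenhouse.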

[4] = system: soybean; experiment: Test B pre/postemergence soybean; type: in vivo, Glycine max
In short: as §1

[5] = system: pigweed; experiment: Test B pre/postemergence pigweed; type: in vivo, Amaranthus retroflexus
In short: as §1

[6] = system: sugar beet; experiment: Test B pre/postemergence sugar beet; type: in vivo, Beta vulgaris
In short: as §1

[7] = system: crabgrass; experiment: Test B pre/postemergence crabgrass; type: in vivo, Digitaria sanguinalis
In short: as §1

[8] = system: smallflower flatsedge; experiment: Test B flood test smallflower flatsedge; type: in vivo, Cyperus difformis
In short: as §2

[9] = system: morningglory; experiment: Test B pre/postemergence morningglory; type: in vivo, Ipomoea hederacea
In short: as §1

[10] = system: rice; experiment: Test B flood test rice; type: in vivo, Oryza sativa
In short: as §2

[11] = system: cocklebur; experiment: Test B pre/postemergence cocklebur; type: in vivo, Xanthium strumarium
In short: as §1

[12] = system: giant foxtail; experiment: Test B pre/postemergence giant foxtail; type: in vivo, Setaria faberii
In short: as §1

[13] = system: blackgrass; experiment: Test B pre/postemergence blackgrass; type: in vivo, Alopecurus myosuroides
In short: as §1

[14] = system: corn; experiment: Test B pre/postemergence corn; type: in vivo, Zea mays
In short: as §1

[15] = system: surinam grass; experiment: Test B pre/postemergence surinam grass; type: in vivo, Brachiaria decumbens
In short: as §1

[16] = system: purple nutsedge; experiment: Test B pre/postemergence purple nutsedge; type: in vivo, Cyperus rotundus
In short: as §1

[17] = Postemergence, Rate 125 g/ha, scale of 0 to 10 where 0 is no effect and 10 is complete control
[18] = Preemergence, Rate 62 g/ha, scale 0 to 10 (0 no effect, 10 complete control)
[19] = Preemergence, Rate 125 g/ha, 0 is no effect, 10 is complete control
[20] = Preemergence, Rate 250 g/ha, scale 0 to 10, 0 is no effect, 10 is complete control
[21] = Preemergence, Rate 500 g/ha, scale 0 to 10 (0 no effect, 10 complete control)
[22] = Rate 62 g/ha, Postemergence, scale of 0 to 10 where 0 is no effect and 10 is complete control
[23] = Rate 250 g/ha, Postemergence, scale 0 to 10, 0 is no effect, 10 is complete control
[24] = Rate 500 g/ha, Postemergence, scale 0 to 10
[25] = Postemergence (flood test species), Rate 125 g/ha, scale of 0 to 10 where 0 is no effect and 10 is complete control
[26] = Rate 62 g/ha, Postemergence section, flood test species, scale of 0 to 10 where 0 is no effect and 10 is complete control
[27] = Rate 250 g/ha, Postemergence (flood test), scale 0 to 10, 0 is no effect, 10 is complete control
[28] = Rate 250 g/ha, Pre-emergence, flood-test species, scale 0 to 10, 0 is no effect, 10 is complete control
[29] = Rate 500 g/ha, headed Pre-emergence (flood test species), scale 0 to 10 (0 no effect, 10 complete control)
[30] = Rate 500 g/ha, listed under Postemergence (flood test species), scale 0 to 10
[31] = Rate 1000 g/ha, Pre-emergence (as headed), scale 0 to 10
[32] = Rate 2000 g/ha, Pre-emergence (as headed), scale 0 to 10

## C=CCn1c(=O)on(C(=O)N(c2ccc(F)cc2)C2CC2)c1=O [Compound 154]
[1]; [17]
  Bedstraw plant response rating: 0
[1]; [18]
  Bedstraw plant response rating: 0
[1]; [19]
  Bedstraw plant response rating (0 to 10 scale): 0
[1]; [20]
  Bedstraw plant response rating: 0
[1]; [21]
  Bedstraw plant response rating: 0
[1]; [22]
  Bedstraw plant response rating: 0
[1]; [23]
  Plant response rating, Bedstraw: 0
[2]; [18]
  Wild oats plant response rating: 0
[2]; [19]
  Wild oats plant response rating (0 to 10 scale): 0
[2]; [20]
  Wild oats plant response rating: 4
[2]; [21]
  Wild oats plant response rating: 5
[2]; [22]
  Wild oats plant response rating: 0
[2]; [23]
  Plant response rating, Wild oats: 0
[2]; [24]
  Wild oats plant response rating: 1
[3]; [25]
  Ducksalad plant response rating: 0
[3]; [26]
  Ducksalad plant response rating: 0
[3]; [27]
  Plant response rating, Ducksalad: 0
[3]; [28]
  Ducksalad plant response rating: 0
[3]; [29]
  Plant response rating, Ducksalad: 0
[3]; [30]
  Ducksalad plant response rating: 0
[3]; [31]
  Ducksalad plant response rating: 0
[3]; [32]
  Ducksalad plant response rating: 0
[4]; [17]
  Soybean plant response rating: 2
[4]; [18]
  Soybean plant response rating: 0
[4]; [19]
  Soybean plant response rating (0 to 10 scale): 0
[4]; [20]
  Soybean plant response rating: 0
[4]; [21]
  Soybean plant response rating: 0
[4]; [22]
  Soybean plant response rating: 2
[4]; [23]
  Plant response rating, Soybean: 2
[4]; [24]
  Soybean plant response rating: 3
[5]; [17]
  Redroot pigweed plant response rating: 0
[5]; [18]
  Redroot pigweed plant response rating: 6
[5]; [19]
  Redroot pigweed plant response rating (0 to 10 scale): 7
[5]; [20]
  Redroot pigweed plant response rating: 8
[5]; [21]
  Redroot pigweed plant response rating: 9
[5]; [22]
  Redroot pigweed plant response rating: 0
[5]; [23]
  Plant response rating, Redroot pigweed: 2
[5]; [24]
  Redroot pigweed plant response rating: 6
[6]; [17]
  Sugarbeets plant response rating: 0
[6]; [18]
  Sugarbeets plant response rating: 0
[6]; [19]
  Sugarbeets plant response rating (0 to 10 scale): 0
[6]; [20]
  Sugarbeets plant response rating: 4
[6]; [21]
  Sugarbeets plant response rating: 6
[6]; [22]
  Sugarbeets plant response rating: 0
[6]; [23]
  Plant response rating, Sugarbeets: 0
[6]; [24]
  Sugarbeets plant response rating: 0
[7]; [17]
  Crabgrass plant response rating: 0
[7]; [18]
  Crabgrass plant response rating: 0
[7]; [19]
  Crabgrass plant response rating (0 to 10 scale): 0
[7]; [20]
  Crabgrass plant response rating: 0
[7]; [21]
  Crabgrass plant response rating: 0
[7]; [22]
  Crabgrass plant response rating: 0
[7]; [23]
  Plant response rating, Crabgrass: 1
[7]; [24]
  Crabgrass plant response rating: 5
[8]; [25]
  S. Flatsedge plant response rating: 0
[8]; Pre-emergence, Rate 1000 g/ha, scale 0 to 10 (0 no effect, 10 complete control)
  S. Flatsedge plant response rating: 0
[8]; [26]
  S. Flatsedge plant response rating: 0
[8]; [27]
  Plant response rating, S. Flatsedge: 0
[8]; [28]
  S. Flatsedge plant response rating: 0
[8]; [30]
  S. Flatsedge plant response rating: 0
[8]; Rate 500 g/ha, Pre-emergence, flood test species, scale 0 to 10 (0 no effect, 10 complete control)
  S. Flatsedge plant response rating: 0
[8]; [32]
  S. Flatsedge plant response rating: 0
[9]; [17]
  Morningglory plant response rating: 0
[9]; [18]
  Morningglory plant response rating: 0
[9]; [19]
  Morningglory plant response rating (0 to 10 scale): 0
[9]; [20]
  Morningglory plant response rating: 0
[9]; [21]
  Morningglory plant response rating: 0
[9]; [22]
  Morningglory plant response rating: 0
[9]; [23]
  Plant response rating, Morningglory: 1
[9]; [24]
  Morningglory plant response rating: 2
[10]; [25]
  Rice plant response rating: 0
[10]; [26]
  Rice plant response rating: 0
[10]; [27]
  Plant response rating, Rice: 0
[10]; [28]
  Rice plant response rating: 0
[10]; [29]
  Plant response rating, Rice: 0
[10]; [30]
  Rice plant response rating: 0
[10]; [31]
  Rice plant response rating: 0
[10]; [32]
  Rice plant response rating: 0
[11]; [17]
  Cocklebur plant response rating: 0
[11]; [18]
  Cocklebur plant response rating: 0
[11]; [19]
  Cocklebur plant response rating (0 to 10 scale): 0
[11]; [20]
  Cocklebur plant response rating: 0
[11]; [21]
  Cocklebur plant response rating: 0
[11]; [22]
  Cocklebur plant response rating: 0
[11]; [23]
  Plant response rating, Cocklebur: 0
[11]; [24]
  Cocklebur plant response rating: 2
[12]; [17]
  Giant foxtail plant response rating: 0
[12]; [18]
  Giant foxtail plant response rating: 0
[12]; [19]
  Giant foxtail plant response rating (0 to 10 scale): 0
[12]; [21]
  Giant foxtail plant response rating: 8
[12]; [22]
  Giant foxtail plant response rating: 0
[12]; [23]
  Plant response rating, Giant foxtail: 1
[12]; [24]
  Giant foxtail plant response rating: 3
[13]; [17]
  Blackgrass plant response rating: 0
[13]; [18]
  Blackgrass plant response rating: 0
[13]; [19]
  Blackgrass plant response rating (0 to 10 scale): 0
[13]; [20]
  Blackgrass plant response rating: 3
[13]; [21]
  Blackgrass plant response rating: 5
[13]; [22]
  Blackgrass plant response rating: 0
[13]; [23]
  Plant response rating, Blackgrass: 0
[13]; [24]
  Blackgrass plant response rating: 0
[14]; [17]
  Corn plant response rating: 0
[14]; [18]
  Corn plant response rating: 0
[14]; [19]
  Corn plant response rating (0 to 10 scale): 0
[14]; [20]
  Corn plant response rating: 0
[14]; [21]
  Corn plant response rating: 0
[14]; [22]
  Corn plant response rating: 0
[14]; [23]
  Plant response rating, Corn: 0
[14]; [24]
  Corn plant response rating: 0
[15]; [17]
  B. signalgrass plant response rating: 0
[15]; [18]
  B. signalgrass plant response rating: 0
[15]; [19]
  B. signalgrass plant response rating (0 to 10 scale): 0
[15]; [20]
  B. signalgrass plant response rating: 0
[15]; [21]
  B. signalgrass plant response rating: 4
[15]; [22]
  B. signalgrass plant response rating: 0
[15]; [23]
  Plant response rating, B. signalgrass: 0
[15]; Rate 500 g/ha, Postemergence, scale 0 to 10, 0 no effect, 10 complete control
  B. signalgrass plant response rating: 2
[16]; [17]
  Nutsedge plant response rating: 0
[16]; [18]
  Nutsedge plant response rating: 0
[16]; [19]
  Nutsedge plant response rating (0 to 10 scale): 0
[16]; [20]
  Nutsedge plant response rating: 0
[16]; [21]
  Nutsedge plant response rating: 0
[16]; [22]
  Nutsedge plant response rating: 0
[16]; [23]
  Plant response rating, Nutsedge: 0
[16]; [24]
  Nutsedge plant response rating: 0
